Reference: the CombiSolv-Exp solvation set (Vermeire and Green 2021)

Assay: solvent given as SMILES
[1] = in CCCCCCCCC=CCCCCCCCC(=O)OCC(COC(=O)CCCCCCCC=CCCCCCCCC)OC(=O)CCCCCCCC=CCCCCCCCC

SMILES: COc1ccccc1C(=O)O
- solvation free energy, 298 K (in C1CCOC1): -11.8 kcal/mol
- solvation free energy, 298 K (in C1COCCO1): -11.7 kcal/mol
- solvation free energy, 298 K (in CC(C)(C)O): -11 kcal/mol
- solvation free energy, 298 K (in CC(C)CCO): -10.8 kcal/mol
- solvation free energy, 298 K (in CC(C)CO): -10.9 kcal/mol
- solvation free energy, 298 K (in CC(C)O): -10.9 kcal/mol
- solvation free energy, 298 K (in CC(C)OCCO): -11.2 kcal/mol
- solvation free energy, 298 K (in CC(O)COC(C)(C)C): -11 kcal/mol
- solvation free energy, 298 K (in CCC(C)O): -11 kcal/mol
- solvation free energy, 298 K (in CCCC(C)O): -10.8 kcal/mol
- solvation free energy, 298 K (in CCCCCCCCCCO): -10.5 kcal/mol
- solvation free energy, 298 K (in CCCCCCCO): -10.8 kcal/mol
- solvation free energy, 298 K (in CCCCCCO): -10.8 kcal/mol
- solvation free energy, 298 K (in CCCCCO): -10.9 kcal/mol
- solvation free energy, 298 K (in CCCCCOC(C)=O): -10.6 kcal/mol
- solvation free energy, 298 K (in CCCCO): -11.1 kcal/mol
- solvation free energy, 298 K (in CCCCOC(C)=O): -10.8 kcal/mol
- solvation free energy, 298 K (in CCCCOCCO): -11.4 kcal/mol
- solvation free energy, 298 K (in CCCO): -11.2 kcal/mol
- solvation free energy, 298 K (in CCCOCCO): -11.3 kcal/mol
- solvation free energy, 298 K (in CCO): -11.5 kcal/mol
- solvation free energy, 298 K (in CCOC(C)=O): -11.2 kcal/mol
- solvation free energy, 298 K (in CCOCC): -10.5 kcal/mol
- solvation free energy, 298 K (in CCOCCO): -11.5 kcal/mol
- solvation free energy, 298 K (in CO): -11.8 kcal/mol
- solvation free energy, 298 K (in COC(C)=O): -11.3 kcal/mol
- solvation free energy, 298 K (in COC(C)CCO): -11.4 kcal/mol

SMILES: OCCCl
- solvation free energy, 298 K (in Brc1ccccc1): -4.8 kcal/mol
- solvation free energy, 298 K (in CCCCCCCCCCO): -5.73 kcal/mol
- solvation free energy, 298 K (in CCCCCCCCO): -5.87 kcal/mol
- solvation free energy, 298 K (in Cc1ccc(C)cc1): -4.77 kcal/mol
- solvation free energy, 298 K (in Cc1cccc(C)c1): -4.69 kcal/mol
- solvation free energy, 298 K (in Cc1ccccc1C): -4.74 kcal/mol
- solvation free energy, 298 K (in Clc1ccccc1): -4.62 kcal/mol
- solvation free energy, 298 K (in O): -6.28 kcal/mol

SMILES: Cc1ccc(C(=O)O)cc1C
- solvation free energy, 298 K (in CN(C)C=O): -11.6 kcal/mol
- solvation free energy, 298 K (in O): -6.55 kcal/mol

SMILES: C1CNCCN1
- solvation free energy, 298 K (in O): -7.4 kcal/mol

SMILES: Nc1cc([N+](=O)[O-])cc(Cl)c1O
- solvation free energy, 298 K (in O): -10.2 kcal/mol

SMILES: CCCCCl
- solvation free energy, 298 K (in C1CCOC1): -4.57 kcal/mol
- solvation free energy, 298 K (in C1CCOCC1): -4.52 kcal/mol
- solvation free energy, 298 K (in C1COCCO1): -4.4 kcal/mol
- solvation free energy, 298 K (in C=CCCCCCCCCCCCCCC): -3.77 kcal/mol
- solvation free energy, 298 K (in CC(C)(C)O): -3.7 kcal/mol
- solvation free energy, 298 K (in CC(C)=O): -4.26 kcal/mol
- solvation free energy, 298 K (in CC(C)CC(C)(C)C): -3.91 kcal/mol
- solvation free energy, 298 K (in CC(C)CO): -3.72 kcal/mol
- solvation free energy, 298 K (in CC(C)OC(C)C): -4.21 kcal/mol
- solvation free energy, 298 K (in CCC(C)O): -3.72 kcal/mol
- solvation free energy, 298 K (in CCCBr): -4.49 kcal/mol
- solvation free energy, 298 K (in CCCCCC): -4.05 kcal/mol
- solvation free energy, 298 K (in CCCCCCC): -3.96 kcal/mol
- solvation free energy, 298 K [1]: -3.93 kcal/mol
- solvation free energy, 298 K (in CCCCCCCCCCCCCCCC): -3.68 kcal/mol
- solvation free energy, 298 K (in CCCCCCCCCCO): -3.67 kcal/mol
- solvation free energy, 298 K (in CCCCCCCCO): -3.71 kcal/mol
- solvation free energy, 298 K (in CCCCOC): -4.37 kcal/mol
- solvation free energy, 298 K (in CCCCOCCCC): -4.11 kcal/mol
- solvation free energy, 298 K (in CCCO): -3.59 kcal/mol
- solvation free energy, 298 K (in CCCOCCC): -4.23 kcal/mol
- solvation free energy, 298 K (in CCI): -4.43 kcal/mol
- solvation free energy, 298 K (in CCOC(C)=O): -4.31 kcal/mol
- solvation free energy, 298 K (in CCOCC): -4.38 kcal/mol
- solvation free energy, 298 K (in COC(C)(C)C): -4.3 kcal/mol
- solvation free energy, 298 K (in ClC(Cl)(Cl)Cl): -4.31 kcal/mol
- solvation free energy, 298 K (in ClCCCl): -4.43 kcal/mol
- solvation free energy, 298 K (in Clc1ccccc1): -4.35 kcal/mol
- solvation free energy, 298 K (in O): -0.23 kcal/mol
- solvation free energy, 298 K (in [2H]O[2H]): -0.73 kcal/mol

SMILES: c1ccc2c(c1)cc1ccc3cccc4ccc2c1c34
- solvation free energy, 298 K [1]: -16.7 kcal/mol

SMILES: O=C1c2ccccc2-c2ccccc21
- solvation free energy, 298 K (in CC(C)(C)O): -10.4 kcal/mol
- solvation free energy, 298 K (in CC(C)CC(C)(C)C): -9.57 kcal/mol
- solvation free energy, 298 K (in CC(C)CCO): -10.5 kcal/mol
- solvation free energy, 298 K (in CC(C)CO): -10.3 kcal/mol
- solvation free energy, 298 K (in CC(C)O): -10.4 kcal/mol
- solvation free energy, 298 K (in CC(C)OC(C)C): -10.5 kcal/mol
- solvation free energy, 298 K (in CCC(C)O): -10.5 kcal/mol
- solvation free energy, 298 K (in CCCCC(CC)CO): -10.5 kcal/mol
- solvation free energy, 298 K (in CCCCCC): -9.78 kcal/mol
- solvation free energy, 298 K (in CCCCCCC): -9.83 kcal/mol
- solvation free energy, 298 K (in CCCCCCCC): -9.86 kcal/mol
- solvation free energy, 298 K [1]: -10.5 kcal/mol
- solvation free energy, 298 K (in CCCCCCCCCC): -9.9 kcal/mol
- solvation free energy, 298 K (in CCCCCCCCCCO): -10.6 kcal/mol
- solvation free energy, 298 K (in CCCCCCCCO): -10.7 kcal/mol
- solvation free energy, 298 K (in CCCCCCCO): -10.7 kcal/mol
- solvation free energy, 298 K (in CCCCCCO): -10.6 kcal/mol
- solvation free energy, 298 K (in CCCCCO): -10.6 kcal/mol
- solvation free energy, 298 K (in CCCCO): -10.6 kcal/mol
- solvation free energy, 298 K (in CCCO): -10.6 kcal/mol
- solvation free energy, 298 K (in CCO): -10.6 kcal/mol
- solvation free energy, 298 K (in CO): -10.6 kcal/mol
- solvation free energy, 298 K (in COC(C)(C)C): -11 kcal/mol
- solvation free energy, 298 K (in ClC(Cl)(Cl)Cl): -11.5 kcal/mol
- solvation free energy, 298 K (in ClCCl): -12 kcal/mol
- solvation free energy, 298 K (in Fc1ccccc1): -11.7 kcal/mol
- solvation free energy, 298 K (in O): -5.78 kcal/mol

SMILES: CC(=O)OCCC(C)CCC=C(C)C (configuration not stated)
- solvation free energy, 298 K (in O): -2.99 kcal/mol

SMILES: CC(=O)OC1(C(C)C)CC=C(C)CC1 (configuration not stated)
- solvation free energy, 298 K (in O): -3.25 kcal/mol

SMILES: CC(C)(C)CCO
- solvation free energy, 298 K (in CCCCCCCC): -4.85 kcal/mol
- solvation free energy, 298 K (in CCCCCCCCCC): -4.72 kcal/mol

SMILES: CC(=O)C1CCCCC1
- solvation free energy, 298 K (in O): -3.9 kcal/mol

SMILES: CCCCCC(=O)c1c(C)[nH]n(-c2ccccc2)c1=O
- solvation free energy, 298 K (in O): -9.26 kcal/mol

SMILES: CC(=O)OCCc1ccccc1
- solvation free energy, 298 K (in O): -5.5 kcal/mol

SMILES: CCSC
- solvation free energy, 298 K (in O): -1.5 kcal/mol

SMILES: CC(=O)CCC(C)C
- solvation free energy, 298 K (in NC=O): -4.52 kcal/mol

SMILES: CCCCCOC(=O)CCC
- solvation free energy, 298 K (in O): -2.55 kcal/mol

SMILES: FC(F)(F)C(F)(F)Cl
- solvation free energy, 298 K (in CCCCCCCCC): -0.87 kcal/mol
- solvation free energy, 298 K (in CCCCCCCCO): -0.39 kcal/mol
- solvation free energy, 298 K (in CN1CCCC1=O): 0.07 kcal/mol
- solvation free energy, 298 K (in CN(C)C=O): -1.54 kcal/mol
- solvation free energy, 298 K (in O): 2.89 kcal/mol

SMILES: Clc1cc(Cl)cc(Cl)c1
- solvation free energy, 298 K (in CCCCCC): -6.96 kcal/mol
- solvation free energy, 298 K (in CCCCCCCCO): -6.62 kcal/mol
- solvation free energy, 298 K (in O): -0.78 kcal/mol

SMILES: Cn1ccnc1
- solvation free energy, 298 K (in O): -8.41 kcal/mol

SMILES: CC1=CCCC(C)=CCC(C)(C)C=CC1
- solvation free energy, 298 K (in O): 0.05 kcal/mol
